The values below come from patent US4816487A, “1-(2-hydroxyaryl)-alkane-1-on-oximes-procedure of preparation and use in pharmaceuticals” (Humboldt-Universitaet zu Berlin, priority 1985, dated 1989).

In experiment [1] the target is T1, lipoxygenase from rabbit reticulocytes (Oryctolagus cuniculus, UniProt P12530).
T1 construct: Lipoxygenase from rabbit reticulocytes was obtained in electrophoretically and immunologically pure form; from tissue; host or cells: rabbit reticulocytes
T1 sequence (P12530 1-663): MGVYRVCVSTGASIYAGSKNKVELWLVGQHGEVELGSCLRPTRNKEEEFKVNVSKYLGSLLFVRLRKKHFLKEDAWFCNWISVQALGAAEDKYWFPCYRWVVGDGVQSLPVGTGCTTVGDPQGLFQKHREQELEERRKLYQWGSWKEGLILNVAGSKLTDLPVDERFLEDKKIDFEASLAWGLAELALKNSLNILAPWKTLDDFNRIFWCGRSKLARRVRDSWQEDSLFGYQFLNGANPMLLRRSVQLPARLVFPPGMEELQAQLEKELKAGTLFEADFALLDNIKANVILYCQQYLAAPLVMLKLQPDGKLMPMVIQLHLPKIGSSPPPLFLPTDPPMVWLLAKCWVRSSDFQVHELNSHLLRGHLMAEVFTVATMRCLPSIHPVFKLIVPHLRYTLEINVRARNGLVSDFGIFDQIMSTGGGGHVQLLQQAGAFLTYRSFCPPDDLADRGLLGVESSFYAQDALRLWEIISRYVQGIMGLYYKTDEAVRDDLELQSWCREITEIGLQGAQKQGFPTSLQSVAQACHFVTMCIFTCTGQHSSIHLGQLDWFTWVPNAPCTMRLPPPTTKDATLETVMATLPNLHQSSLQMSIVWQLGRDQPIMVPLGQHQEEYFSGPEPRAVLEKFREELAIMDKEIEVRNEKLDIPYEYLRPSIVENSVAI
Nature of the experiment: inhibition of activity of lipoxygenase from rabbit reticulocytes. The experiment is classed as biochemical. Particulars: for inhibition of rabbit reticulocyte lipoxygenase by known lipoxygenase inhibitors: concentration not given; for IC50: Table 3, in parentheses, read-out: I50-value, lipoxygenase from reticulocytes; for inhibition at 1000 µM: ultimate concentration 1.0 mM; for effect on reticulocyte lipoxygenase: ultimate concentration 1 mM. On the procedure:
(§1) Persuasive evidence to inhibition of lipoxygenase was produced by a suitable animal lipoxygenase which had been isolated from rabbit reticulocytes, using a method by Rapoport and coworkers /S. M. Rapoport et al., Eur. J. Biochem. 96, 545 (1979)/. A final concentration of 1 mM of most of the compounds, according to this invention, produced inhibition of 90 percent or more (cf. Example 20). Significant inhibition was even recordable from a final concentration of 0.1 mM of some of the compounds, according to this invention. Substance concentrations were varied to determine the titration curves of inhibition and from these the half-inhibition concentrations (I50 -values). A half-inhibition concentration of 7 μM was established for 5-methyl-2-hydroxy-laurophenone-oxime, an oxime of high anti-asthmatic effectiveness.
Inhibition of activity of lipoxygenase from rabbit reticulocytes:
(§2) Lipoxygenase from rabbit reticulocytes was obtained in electrophoretically and immunologically pure form by means of the method described in the literature /S. M. Rapoport et al., Eur. J. Biochem. 96, 545 (1979)/. Lipoxygenase activity was determined at 25° C. by amperometric measurement of oxygen consumption by means of a Clark electrode in the following system: 0.1M potassium phosphate, pH 7.4, with 0.2-per-cent sodium cholate and 0.53 mM linoleic acid. The enzyme concentration was […] in the sample for measurement. The substances submitted for testing were dissolved in methyl glycol (fresh distillation in vacuum) and pre-incubated ten minutes with the enzyme at measurement temperature and in the absence of sodium cholate and linoleic acid. […] No remarkable inhibition occurred to control samples under these conditions. Enzyme reaction was started by addition of sodium cholate and linoleic acid. The titration curve of inhibition and, consequently, the concentrations required for inhibition by the order of 50 per cent were determined by variation of active substance concentrations. For comparison, the compounds were tested also on commercial lipoxygenase-1 from soybean.

Experiment [2] addresses T2, lipoxygenase-1 from soybean (Glycine max, UniProt P08170).
T2 construct: purchased
T2 sequence (P08170 1-839): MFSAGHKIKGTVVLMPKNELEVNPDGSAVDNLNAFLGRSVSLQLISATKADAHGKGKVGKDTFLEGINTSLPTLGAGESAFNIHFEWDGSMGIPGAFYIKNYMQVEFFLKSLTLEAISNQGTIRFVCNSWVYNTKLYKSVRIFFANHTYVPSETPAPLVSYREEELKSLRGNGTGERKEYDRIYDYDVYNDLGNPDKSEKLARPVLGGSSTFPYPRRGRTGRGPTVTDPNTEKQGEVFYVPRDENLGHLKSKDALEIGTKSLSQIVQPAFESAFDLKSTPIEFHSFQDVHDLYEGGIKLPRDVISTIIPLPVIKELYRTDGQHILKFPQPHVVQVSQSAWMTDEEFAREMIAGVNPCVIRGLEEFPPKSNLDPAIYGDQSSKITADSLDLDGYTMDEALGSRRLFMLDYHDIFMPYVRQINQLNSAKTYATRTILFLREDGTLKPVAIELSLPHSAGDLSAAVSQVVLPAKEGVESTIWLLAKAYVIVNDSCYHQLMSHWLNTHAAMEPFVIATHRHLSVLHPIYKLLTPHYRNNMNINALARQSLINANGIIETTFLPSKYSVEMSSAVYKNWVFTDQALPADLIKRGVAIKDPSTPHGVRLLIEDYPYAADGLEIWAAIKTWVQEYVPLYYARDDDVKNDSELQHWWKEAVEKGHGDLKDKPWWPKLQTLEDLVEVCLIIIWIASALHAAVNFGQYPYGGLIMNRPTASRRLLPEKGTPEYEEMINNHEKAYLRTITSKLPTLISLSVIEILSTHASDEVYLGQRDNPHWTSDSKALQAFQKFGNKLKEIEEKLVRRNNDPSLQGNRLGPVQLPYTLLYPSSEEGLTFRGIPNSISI
The experiment is described as follows: inhibition of soybean lipoxygenase-1. The experiment is classed as biochemical. Particulars: read-out: Inhibition (percent) of lipoxygenase from soybean; for inhibition at 1000 µM: ultimate concentration 1.0 mM. On the procedure: as §1, §2

In another experiment the test system is thrombocyte aggregation. The experiment is described as follows: inhibition of thrombocyte aggregation induced by arachidonic acid or platelet activation factor. The experiment is classed as cell-based, man. The procedure:
Since inhibition of lipoxygenase was identified as molecular point of attack of these new medicaments, studies were conducted also into their action upon thrombocyte aggregation. The substantive role played by the lipoxygenase route in the irreversibility of thrombocyte aggregation is well established at present/C. E. Dutilh et al., Prostaglandins and Medicine 6, 111 (1981)/. A key role in the pathogenesis of thrombotic diseases is attributed to irreversibility of thrombocyte aggregation. […] In the experiments conducted for this invention, thrombocyte aggregation was triggered off either by arachidonic acid or by the platelet activation factor (PAF-acether).
Inhibition of thrombocyte aggregation induced by arachidonic acid or the platelet activation factor:
The compounds were tested for antithrombotic and thrombolytic activity in vitro on the authentic cell system of man. High-thrombocyte plasma was obtained from the blood of clinically healthy donors by 1000×g centrifugation. Thrombocyte aggregation was measured by means of an aggregometer on the basis of diffuse scatter of light or absorption of light by resulting cell aggregates. The high-thrombocyte plasma was pre-incubated with the active substances at 37° C. for three minutes. Thrombocyte aggregation was then triggered off by alternative addition of 0.8 mM of arachidonic acid or 1 μM of platelet activation factor (PAF acether). […]

A further experiment relates to sensitised guinea pig. Particulars: cited: C. Armour and D. M. Temple, Agents Action 12, 285 (1982); cited from earlier work.
Setting [3] is: read-out: Inhibition (percent) of lipoxygenase from reticulocytes.

Take `COc1ccc(O)c(C(C)(C)C)c1` [3-tert.-butyl-4-hydroxy-anisol, reference compound]: in experiment [1], the “inhibition of rabbit reticulocyte lipoxygenase by known lipoxygenase inhibitors” value (shortened to “inhibition … by known lipoxygenase inhibitors”) is “inhibited with high effectiveness”.
`CCCCCCCCCCCCCCCCOc1ccc(C(C)=NO)c(O)c1` [4-hexadecyloxy-2-hydroxy-acetophenone-oxime]: the inhibition (as a rule, the relative decrease from the control value, in per cent) at 500 µM was determined as 38% in experiment [2] (ultimate concentration 0.5 mM) and 75% in experiment [1] (ultimate concentration 0.5 mM, read-out: Inhibition (percent) of lipoxygenase from reticulocytes). Moreover, the IC50 in experiment [1] came to 500 µM.
Turning to `CCCCCCOc1ccc(C(C)=NO)c(O)c1` [4-hexyloxy-2-hydroxy-acetophenone-oxime], the inhibition at 1000 µM amounted to 68% in experiment [2] and 100% in experiment [1] (setting [3]). In addition, in the experiment with thrombocyte aggregation (44 μM), the “retardation of thrombocyte aggregation” value is “retarded aggregation by about two minutes”. Further, the “inhibition of thrombocyte aggregation” value in the experiment on thrombocyte aggregation (60 μM) is on record as “total inhibition”. Besides, the IC50 in experiment [1] came out at 260 µM.
In the case of `O=[N+]([O-])c1ccc(O)c(O)c1` [4-nitrocatechol, reference compound], in experiment [1], the “inhibition … by known lipoxygenase inhibitors” value is given as “inhibited with high effectiveness”.
Still for that read-out and setting: the entry for `CCCCCC#CCC#CCC#CCC#CCCCC(=O)O` [5,8,11,14-eicosa-tetraynoic acid, reference compound] is “inhibited with high effectiveness”; for `CCCCCCCCC#CCC#CCC#CCCCC(=O)O` [5,8,11-eicosatriynoic acid, reference compound] it is “inhibited with high effectiveness”.
In the case of `CCCCCC(=NO)c1cc(Cl)ccc1O` [5-chloro-2-hydroxy-caprophenone-oxime], the values for the inhibition at 1000 µM in experiment [2] and in experiment [1] (setting [3]) were 24% and 90%, respectively. For the same compound, the IC50 in experiment [1] came out at 300 µM.
Turning to `O=C(O)c1cc(=O)c2c(OCC(O)COc3cccc4oc(C(=O)O)cc(=O)c34)cccc2o1` [disodium-cromoglycate, reference compound], in the experiment with sensitised guinea pig, the “comparable anti-asthmatic, anti-allergic, and anti-anaphylactic effects on a whole-animal model” value is reported as “have not even been known”. Also, in experiment [1], the “effect on reticulocyte lipoxygenase” value is given as “failed to have an effect”.
Regarding `CN1CCC(=C2c3ccccc3CC(=O)c3sccc32)CC1` [ketotifen, reference compound], in the experiment with sensitised guinea pig, the “comparable anti-asthmatic, anti-allergic, and anti-anaphylactic effects on a whole-animal model” value is given as “have not even been known”. Also, the “effect on reticulocyte lipoxygenase” value in experiment [1] is “failed to have an effect”.
On to `CC(Cc1ccc(O)c(O)c1)C(C)Cc1ccc(O)c(O)c1` (centres unmarked) [nordihydroguaiaretic acid, reference compound], for which the “inhibition … by known lipoxygenase inhibitors” value in experiment [1] is reported as “inhibited with high effectiveness”.
